{"source": "patent EP0399909A1", "about": "“Cosmetic composition against skin ageing” (ELF SANOFI, priority 1989, dated 1990)", "tested_on": "fibroblastes de peau humaine (ATCC No CRL 1513)", "assay": "SAMe formation in cultured human skin fibroblasts with increasing betaine concentrations (HPLC determination)", "assay_type": "cell-based", "settings": "for Concentration de SAMe: 6 days culture, control without bétaïne 0,54", "procedure": "L'effet exercé par la bétaïne sur la formation de SAMe a été mis en évidence par les résultats obtenus à des concentrations croissantes de bétaïne dans des fibroblastes de peau humaine (ATCC No CRL 1513) en culture. Plus précisément, les cellules (2.10⁴/ml) ont été mises en culture pendant 6 jours dans 250 ml de milieu de culture Dulbecco's Modified Eagle Medium (DMEM) contenant 20 % de sérum de veau foetal, en présence de concentrations croissantes (de 10⁻⁵ M à 5.10⁻⁴ M) de bétaïne. Au terme de la culture, les cellules ont été décollées à la trypsine (0,05 %) et à l'EDTA (0,02 %) et centrifugées. Le surnageant a été récupéré et précipité à l'acide trichloroacétique (0,2 N, v/v) puis centrifugé à nouveau. Le surnageant a été ensuite récupéré et lyophylisé. Les lyophylisats ont été repris avec de l'eau et analysés en HPLC (Colonne : Nucléosyl C8; Eluant : Solvant A (acétate de sodium 8,2 g; octylsulfonate de sodium 200 mg; acide citrique 4,2 g; EDTA 50 mg; eau q.s. pour 1 litre) 95 % et Solvant B (méthanol) 5 %) en utilisant un détecteur à 260 nm. La quantité de SAMe a été déterminée d'après une gamme étalon traitée dans les mêmes conditions expérimentales."}
{"smiles": "C[N+](C)(C)CC(=O)[O-]", "note": "[bétaïne, (CH₃)₃N⁺-CH₂-COO⁻]", "values": [{"measurement": "Concentration de SAMe", "setting": "Concentration de bétaïne 1 (10⁻⁵ M)", "value": "0,62 nMoles/10⁷ cellules"}, {"measurement": "Concentration de SAMe", "setting": "Concentration de bétaïne 5 (10⁻⁵ M)", "value": "0,94 nMoles/10⁷ cellules"}, {"measurement": "Concentration de SAMe", "setting": "Concentration de bétaïne 10 (10⁻⁵ M)", "value": "1,72 nMoles/10⁷ cellules"}, {"measurement": "Concentration de SAMe", "setting": "Concentration de bétaïne 50 (10⁻⁵ M)", "value": "1,90 nMoles/10⁷ cellules"}, {"measurement": "quantité d'adémétionine des fibroblastes de peau humaine", "setting": "in vitro, even at very low concentrations", "value": "agit significativement"}]}
